Test results as given in patent publication US20140309192A1, “MODULATORS OF THE G PROTEIN-COUPLED MAS RECEPTOR AND THE TREATMENT OF DISORDERS RELATED THERETO” (ARENA PHARMACEUTICALS, INC., priority 2011, published 2014).
Entries after “also recorded” stand apart in the source; their conditions may differ.

Key:
rat Mas receptor = biological target: T1, rat Mas receptor (Rattus norvegicus, UniProt P12526); assay: HTRF IP1 assay, HEK293 cells expressing rat Mas receptor; type: cell-based
T1 construct: expressed in transfected cells; host or cells: HEK293 (ATCC CRL-1573)
T1 sequence (P12526 1-324): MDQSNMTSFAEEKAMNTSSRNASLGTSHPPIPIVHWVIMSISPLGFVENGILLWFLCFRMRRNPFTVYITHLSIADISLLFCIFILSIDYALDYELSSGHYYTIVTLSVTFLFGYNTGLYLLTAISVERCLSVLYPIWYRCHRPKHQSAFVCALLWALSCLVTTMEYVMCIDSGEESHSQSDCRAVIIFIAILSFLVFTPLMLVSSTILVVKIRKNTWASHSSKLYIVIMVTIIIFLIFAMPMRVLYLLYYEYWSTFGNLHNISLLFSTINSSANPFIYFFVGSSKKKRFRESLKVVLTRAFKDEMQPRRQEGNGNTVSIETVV
From the text: (§1) Human and rat Mas receptors were either transiently or stably expressed in HEK293 cells. For transient transfections, human or rat Mas in pHM6 vector were transfected into HEK293 cells using Lipofectamine® (Invitrogen #18324-012). HEK293 cells transfected with empty pHM6 vector were used as a control. For generation of stable cell lines, cDNA expression plasmids encoding human or rat Mas genes and the neo^r gene were transfected into HEK293 cells (ATCC# CRL-1573) using Lipofectamine® (Invitrogen) according to the manufacturer's instructions. Stable receptor expressing pools were then generated over 3 weeks by standard techniques in the presence of 500 μg/mL Geneticin® (Gibco). Individual receptor stable pools were dilution cloned using standard techniques and clones were comparatively evaluated in inositol phosphate accumulation assays. Preferred clones were banked and cultured as needed. HEK293 cells were used as controls. The 384 well IP-One HTRF® Assay (Cisbio #62P1APEJ) was performed as described by the manufacturer's protocol. Cells were plated in at 100,000 cells per well in 15 μL DMEM (Gibco #11960) and incubated in a CO2 incubator at 37° C. for 2 h. Five μL of compounds diluted in 2× stimulation buffer plus 0.4% BSA (Sigma (#A3059) were added to each well and serial diluted IP1 standards (Cisbio #62IP1CDA) were also added to corresponding wells at this step. After the cells were incubated for 4 h in a CO2 incubator at 37° C., d2-labeled IP1 and cryptate-labeled anti-IP1 monoclonal antibody diluted in lysis buffer were added sequentially in 10 μL per well and the assay plates were kept in the dark at room temperature overnight. Ratiometric measurements of fluorescence emission at 665 nm and 620 nm were obtained using a Pherastar fluorometer (BMG Labtech). IP1 levels in each well were calculated according to the standard curves on each plate. IC50 values were obtained by fitting data to a nonlinear curve-fitting program (GraphPad Software, Inc., La Jolla Calif.).

human Mas receptor = biological target: T2, human Mas receptor (Homo sapiens, UniProt P04201); assay: HTRF IP1 assay, HEK293 cells expressing human Mas receptor; type: cell-based
T2 construct: expressed in transfected cells; host or cells: HEK293 (ATCC CRL-1573)
T2 sequence (P04201 1-325): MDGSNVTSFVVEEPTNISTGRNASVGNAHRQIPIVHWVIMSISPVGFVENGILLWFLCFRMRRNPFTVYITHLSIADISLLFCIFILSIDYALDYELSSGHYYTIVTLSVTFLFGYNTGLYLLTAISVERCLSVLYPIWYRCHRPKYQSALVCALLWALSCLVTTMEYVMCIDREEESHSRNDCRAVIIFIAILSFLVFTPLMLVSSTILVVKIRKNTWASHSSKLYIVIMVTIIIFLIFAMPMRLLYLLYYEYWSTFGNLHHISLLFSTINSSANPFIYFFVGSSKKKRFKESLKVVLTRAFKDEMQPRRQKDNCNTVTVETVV
From the text: as §1

control HEK293 cells = assay: HTRF IP1 assay in control HEK293 cells; type: cell-based; details: IP assay
From the text: Human and rat Mas receptors were either transiently or stably expressed in HEK293 cells. For transient transfections, human or rat Mas in pHM6 vector were transfected into HEK293 cells using Lipofectamine® (Invitrogen #18324-012). HEK293 cells transfected with empty pHM6 vector were used as a control. For generation of stable cell lines, cDNA expression plasmids encoding human or rat Mas genes and the neo^r gene were transfected into HEK293 cells (ATCC# CRL-1573) using Lipofectamine® (Invitrogen) according to the manufacturer's instructions. Stable receptor expressing pools were then generated over 3 weeks by standard techniques in the presence of 500 μg/mL Geneticin® (Gibco). Individual receptor stable pools were dilution cloned using standard techniques and clones were comparatively evaluated in inositol phosphate accumulation assays. Preferred clones were banked and cultured as needed. HEK293 cells were used as controls. The 384 well IP-One HTRF® Assay (Cisbio #62P1APEJ) was performed as described by the manufacturer's protocol. Cells were plated in at 100,000 cells per well in 15 μL DMEM (Gibco #11960) and incubated in a CO2 incubator at 37° C. for 2 h. […] IP1 levels in each well were calculated according to the standard curves on each plate. […]

Male Sprague-Dawley rats = assay: Coronary artery ligation model, LV area at risk and infarct size (Example 5.6); type: in vivo, rat; details: 10 mg/kg i.v. bolus 10 min before ligation or 3 min before reperfusion; 30 min ischemia, 2 h reperfusion
[1] = tested on: isolated perfused rat hearts; assay: Ex vivo coronary flow, Langendorff perfused isolated rat hearts
Description: Coronary flow was measured in male Mas^−/− and Mas^+/+ mice, and in male Sprague-Dawley rats using Langendorff perfused isolated hearts. Freshly isolated hearts were placed on a Langendorff apparatus (Harvard Apparatus) and perfused at a constant pressure of 80 mmHg with a modified Krebs-Henseleit buffer solution (Sigma K3753) and aerated with 95% oxygen and 5% carbon dioxide, pH 7.35-7.4. The temperature was maintained at 37° C. by surrounding the heart with a water-heated glassware chamber. Coronary flow was measured using a flow measurement system (Harvard Apparatus) which included the transit time flow meter and a flow probe built into an adaptor block located at the perfusate inflow port. Data were recorded continuously using an ISOHEART data acquisition system (Harvard Apparatus). After a 20-min equilibration period, Mas compounds were added to the perfusion buffer reservoir at the desired concentration (agonist AR234960 at 1 μM, or inverse agonist AR244555 at 5 μM) and coronary flow was recorded for 10 min
To determine the role of the Mas-Gq-PLC pathway in regulating coronary flow, the Mas inverse agonist AR244555 (5 μM) or the PLC inhibitor U-73122 (0.5 μM) was added to the perfusion buffer for 10 min and then the agonist AR234960 (1 μM) was added to the perfusion buffer. Coronary flow was recorded for another 10 min Changes in coronary flow induced by AR234960 were calculated as percentage of the coronary flow at 10 min following AR234960 treatment, relative to the coronary flow measured immediately prior to addition of AR234960. This protocol allowed for measurement of agonist mediated vasoconstrictor activity, and accounted for changes in baseline coronary flow due to inverse agonist treatment alone.
To determine whether Mas agonist-induced changes in coronary flow were endothelium-dependent, the responses in Langendorff perfused hearts were measured after chemical removal of endothelium with sodium deoxycholate. After a 20-min equilibration period, sodium deoxycholate was added to the perfusion buffer at 0.2 mg/mL for 3 min and then washed out for 10 min Mas compounds were added and coronary flow was recorded for 10 min Adenosine (1 μM), a coronary vasodilator that targets the endothelium, was used as a control to verify effective removal of endothelium.

[2] = tested on: isolated perfused rat hearts; assay: Global ischemia-reperfusion in Langendorff perfused rat hearts (coronary flow, arrhythmias)
Description: For ischemia-reperfusion experiments, Langendorff perfused rat hearts were equilibrated for 20 min and then baseline coronary flow was recorded for 10 min Thereafter, all hearts were subjected to 30 min of global ischemia by stopping perfusate flow, followed by 30 min of reperfusion with either vehicle (0.01% DMSO), Mas agonist AR234960 (1 μM) or Mas inverse agonist AR244555 (5 μM) added to the perfusion buffer. Electrocardiography was also continuously recorded during the observation period through electrodes attached directly to the surface of the ventricles to detect cardiac arrhythmias during reperfusion.

Male Sprague Dawley rats = assay: Carrageenan-induced inflammatory paw swelling model; type: in vivo, rat; details: i.p. 30 minutes prior to λ-carrageenan; AR305352 1, 3 and 10 mg/kg; dexamethasone 2 mg/kg; 1, 2, 3, 6 and 24 hours
Description: In a blinded and randomized fashion, rats were intraperitoneally dosed with a Mas receptor inverse agonist (AR305352, N-(4-chloro-2-(4-(3,3,3-trifluoropropyl)piperazin-1-yl)phenyl)-2,6-difluorobenzamide, see Zhang, T., et. al., Am J Physiol Heart Circ Physiol 302:H299-H311, (2012)) at 1, 3 and 10 mg/kg, 20% HPCD or 2 mg/kg of dexamethasone, 30 minutes prior to injection of 100 μl of saline or 100 μg of λ-carrageenan into the left or right foot pad of anesthetized animals. The difference in footpad width was measured using a caliper at 1, 2, 3, 6 and 24 hours post-injection.

Mas receptor = details: Dong, et al., Cell 106:619-632 (2001); cited from earlier work

For `C=CCCN1CCC2(CC1)CN(C(=O)c1c(F)cccc1F)c1ccc(Cl)cc12` [AR244555, 1′-(but-3-enyl)-1,2-dihydro-5-chloro-1-(2,6-difluoro-benzoyl)-spiro[3H-indole-3,4′-piperidine]], the IC50 (rat Mas receptor; IP assay, HEK293 cells stably expressing rat Mas, 4 h, means ± SEM, read-out: Rat IC50) was 0.348 ± 0.067 µM, the “ligand activity in IP assay, rat Mas” value (rat Mas receptor; Table C, line under Rat IC50) was “(inverse agonist)” and the IC50 (human Mas receptor; IP assay, HEK293 cells stably expressing human Mas, 4 h, means ± SEM, read-out: Human IC50) was 0.186 ± 0.011 µM. For the same compound, the “ligand activity in IP assay, human Mas” value (human Mas receptor; Table C, line under Human IC50) was “(inverse agonist)”, the “effects in control HEK293 cells” value (control HEK293 cells) was “There were detected effects” and the “infarct size (percentage of the area at risk) vs vehicle” value (Male Sprague-Dawley rats) was “reduced infarct size by about half; also recorded: cardioprotective”. For the same compound, the “coronary flow in isolated perfused rat hearts” value ([1]; AR234960 1 μM, AR244555 5 μM, 10 min) was “modest but significant increase; also recorded: significantly increased”, the “decrease in coronary flow induced by AR234960 (1 μM) after pretreatment” value ([1]; pretreatment 10 min: AR244555 5 μM or U-73122 0.5 μM) was “prevented the decrease” and the arrhythmias during reperfusion ([2]; 5 μM, six hearts) was “no arrhythmias were observed”. For the same compound, the “coronary flow during reperfusion compared to vehicle treated hearts” value ([2]; 30 min global ischemia, 30 min reperfusion, AR234960 1 μM, AR244555 5 μM in perfusate during reperfusion) was “significantly elevated coronary flow”.
With `O=C(Nc1ccc(Cl)cc1N1CCN(CCC(F)(F)F)CC1)c1c(F)cccc1F` [AR305352, N-(4-chloro-2-(4-(3,3,3-trifluoropropyl)piperazin-1-yl)phenyl)-2,6-difluorobenzamide] the “foot-pad inflammation / paw swelling” value (Male Sprague Dawley rats) was “suppress foot-pad inflammation in a dose-dependent manner”.
In the case of NPFF, the EC50 (Mas receptor) is listed as about 0.4 µM.
